# Reference: patent publication US20230265151A1, “GIP/GLP1 CO-AGONIST COMPOUNDS” (priority 2020, published 2023)
# Where two headings read alike, the source gives them in different places.
# Legend:
# Assay type in all cases: cell-based
# hGIPR = target: T1, hGIPR (Homo sapiens, UniProt P48546); experiment: Functional cAMP formation (HTRF) in HEK-293 clonal cells expressing hGIPR, 0.1% bovine casein, without or with 1.0% human serum albumin; details: for EC50: read-out: hGIPR EC50, nM (SEM, n); for Emax: read-out: hGIPR Emax, % ± SEM
# T1 construct: expressed in transfected cells
# T1 sequence (P48546 22-466): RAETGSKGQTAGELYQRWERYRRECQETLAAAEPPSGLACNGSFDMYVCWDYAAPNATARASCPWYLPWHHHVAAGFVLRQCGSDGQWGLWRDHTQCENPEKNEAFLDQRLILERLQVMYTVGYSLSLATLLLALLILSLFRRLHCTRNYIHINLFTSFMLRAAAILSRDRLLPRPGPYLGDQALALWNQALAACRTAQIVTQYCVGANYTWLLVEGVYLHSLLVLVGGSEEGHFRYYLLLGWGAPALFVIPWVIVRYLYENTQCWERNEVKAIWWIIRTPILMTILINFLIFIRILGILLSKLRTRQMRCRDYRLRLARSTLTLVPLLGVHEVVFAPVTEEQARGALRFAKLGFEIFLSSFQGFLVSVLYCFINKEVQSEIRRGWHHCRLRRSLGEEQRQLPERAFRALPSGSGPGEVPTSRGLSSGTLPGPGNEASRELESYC
# In short: (§1)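 Readings of the HTRF 665/620 nm ratio, which falls as cAMP rises, were converted to nM cAMP using a standard curve after 30 min peptide exposure at 37° C.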
# hGCGR = target: T2, hGCGR (Homo sapiens, UniProt P47871); experiment: Functional cAMP formation (HTRF) in HEK-293 clonal cells expressing hGCGR, 0.1% bovine casein, without or with 1.0% human serum albumin; details: read-out: hGCGR EC50, nM (SEM, n)
# T2 construct: expressed in transfected cells
# T2 sequence (P47871 26-477): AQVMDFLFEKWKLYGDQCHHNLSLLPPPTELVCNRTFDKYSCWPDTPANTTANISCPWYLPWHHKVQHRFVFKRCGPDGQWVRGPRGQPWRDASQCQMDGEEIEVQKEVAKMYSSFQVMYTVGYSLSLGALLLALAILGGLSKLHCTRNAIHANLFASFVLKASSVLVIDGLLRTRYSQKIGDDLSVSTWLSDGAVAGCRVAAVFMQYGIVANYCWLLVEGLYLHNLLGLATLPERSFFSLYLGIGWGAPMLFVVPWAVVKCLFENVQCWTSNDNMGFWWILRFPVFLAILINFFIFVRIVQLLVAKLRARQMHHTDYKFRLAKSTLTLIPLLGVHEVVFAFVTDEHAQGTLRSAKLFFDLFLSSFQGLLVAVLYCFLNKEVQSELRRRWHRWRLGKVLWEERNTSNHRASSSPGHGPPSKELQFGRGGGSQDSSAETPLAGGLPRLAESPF
# In short: as §1
# hGLP-1R = hGLP-1R (Homo sapiens, UniProt P43220); experiment: Functional cAMP formation (HTRF) in HEK-293 clonal cells expressing hGLP-1R, 0.1% bovine casein, without or with 1.0% human serum albumin; parameters: expressed in transfected cells; details: for EC50: geometric mean, read-out: hGLP-1R EC50, nM (SEM, n); for Emax: read-out: hGLP-1R Emax, % ± SEM
# hGLP-1R, sequence (P43220 24-463): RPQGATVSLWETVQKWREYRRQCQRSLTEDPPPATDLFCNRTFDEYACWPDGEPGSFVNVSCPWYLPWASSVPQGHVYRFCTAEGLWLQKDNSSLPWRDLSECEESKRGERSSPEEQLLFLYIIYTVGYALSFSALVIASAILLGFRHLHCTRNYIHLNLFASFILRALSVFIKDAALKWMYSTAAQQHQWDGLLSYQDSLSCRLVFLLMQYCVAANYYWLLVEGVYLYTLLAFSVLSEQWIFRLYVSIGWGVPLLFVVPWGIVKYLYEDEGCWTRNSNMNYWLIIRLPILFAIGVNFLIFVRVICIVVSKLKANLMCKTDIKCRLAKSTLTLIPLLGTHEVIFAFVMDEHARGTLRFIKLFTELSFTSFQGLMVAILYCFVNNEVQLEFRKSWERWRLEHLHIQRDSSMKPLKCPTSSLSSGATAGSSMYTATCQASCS
# In short: as §1
# [1] = 0.1% bovine casein and 1.0% human serum albumin, 37° C., geometric mean
# [2] = cAMP, incubated at 37° C., 0.1% bovine casein (no human serum albumin), geometric mean
# [3] = HEK293, cAMP, 37° C., 0.1% bovine casein and 1.0% human serum albumin, percent of maximal response to GIP(1-42)NH2
# [4] = HEK293, cAMP, 37° C., 0.1% bovine casein, percent of maximal response to GIP(1-42)NH2, arithmetic mean
# [5] = cAMP, 37° C., 0.1% bovine casein (no human serum albumin), geometric mean
# [6] = cAMP, 37° C., 0.1% bovine casein and 1.0% human serum albumin, geometric mean (SEM, n)
# [7] = cAMP, 37° C., 0.1% bovine casein (no human serum albumin)
Structure (SMILES),EC50 (hGIPR; [1]) [nM],"Emax (hGIPR; HEK293, 0.1% bovine casein and 1.0% human serum albumin, 37° C., percent of maximal response to GIP(1-42)NH2) [%]","Emax (hGIPR; HEK293, percent of maximal response to GIP(1-42)NH2, 37° C., 0.1% bovine casein, arithmetic mean) [%]",EC50 (hGIPR; [2]) [nM],EC50 (hGCGR; [1]) [nM],EC50 (hGCGR; [2]) [nM],"EC50 (hGLP-1R; 0.1% bovine casein and 1.0% human serum albumin, 37° C.) [nM]","Emax (hGLP-1R; HEK293, 0.1% bovine casein and 1.0% human serum albumin, 37° C., percent of maximal response to GLP-1(7-36)NH2) [%]","Emax (hGLP-1R; HEK293, percent of maximal response to GLP-1(7-36)NH2, 37° C., 0.1% bovine casein, arithmetic mean) [%]","EC50 (hGLP-1R; cAMP, incubated at 37° C., 0.1% bovine casein (no human serum albumin)) [nM]",Emax (hGIPR; [3]) [%],Emax (hGIPR; [4]) [%],EC50 (hGIPR; [5]) [nM],EC50 (hGIPR; [6]) [nM],EC50 (hGCGR; [5]) [nM],EC50 (hGCGR; [6]) [nM],"Emax (hGLP-1R; HEK293, cAMP, 37° C., 0.1% bovine casein and 1.0% human serum albumin, percent of maximal response to GLP-1(7-36)NH2) [%]","Emax (hGLP-1R; HEK293, cAMP, 37° C., 0.1% bovine casein, percent of maximal response to GLP-1(7-36)NH2, arithmetic mean) [%]",EC50 (hGLP-1R; [7]) [nM]
CC[C@H](C)[C@H](NC(=O)[C@H](CCCN)NC(=O)[C@H](CC(=O)O)NC(=O)[C@H](CC(C)C)NC(=O)[C@](C)(CC(C)C)NC(=O)[C@@H](NC(=O)[C@H](CO)NC(=O)[C@H](Cc1ccncc1)NC(=O)[C@H](CC(=O)O)NC(=O)[C@H](CO)NC(=O)[C@@H](NC(=O)[C@](C)(Cc1ccccc1F)NC(=O)[C@@H](NC(=O)CNC(=O)[C@H](CCC(=O)O)NC(=O)C(C)(C)NC(=O)[C@@H](N)Cc1ccc(O)cc1)[C@@H](C)O)[C@@H](C)O)[C@@H](C)CC)C(=O)N[C@@H](C)C(=O)N[C@@H](CCC(N)=O)C(=O)NC(C)(C)C(=O)N[C@@H](CCCCNC(=O)COCCOCCNC(=O)COCCOCCNC(=O)CCCCCCCCCCCCC(=O)O)C(=O)N[C@@H](Cc1ccccc1)C(=O)N[C@H](C(=O)N[C@H](CCC(=O)O)C(=O)N[C@@](C)(Cc1ccc(O)cc1)C(=O)N[C@@H](CC(C)C)C(=O)N[C@H](C(=O)N[C@@H](CCC(=O)O)C(=O)NCC(=O)NCC(=O)N1CCC[C@H]1C(=O)N[C@@H](CO)C(=O)N[C@@H](CO)C(=O)NCC(=O)N[C@@H](C)C(=O)N1CCC[C@H]1C(=O)N1CCC[C@H]1C(=O)N1CCC[C@H]1C(=O)N[C@@H](CO)C(=O)N[C@@H](CCCCNC(=O)COCCOCCNC(=O)COCCOCCNC(=O)CCCCCCCCCCCCC(=O)O)C(N)=O)[C@@H](C)CC)[C@@H](C)CC [Example 196],0.712,80.8 ± 0.269,96 ± 2.1,0.0232,> 9950,> 9950,21.4,112 ± 4.62,96.8 ± 2.59,0.356,–,–,–,–,–,–,–,–,–
CC[C@H](C)[C@H](NC(=O)[C@H](CC(C)C)NC(=O)[C@](C)(Cc1ccc(O)cc1)NC(=O)[C@@H](CCC(=O)O)NC(=O)[C@@H](NC(=O)[C@H](Cc1ccccc1)NC(=O)[C@H](CCCCNC(=O)COCCOCCNC(=O)COCCOCCNC(=O)CCCCCCCCCCCCC(=O)O)NC(=O)C(C)(C)NC(=O)[C@H](CCC(N)=O)NC(=O)[C@H](C)NC(=O)[C@H](CCCCNC(=O)COCCOCCNC(=O)COCCOCCNC(=O)CCCCCCCCCCCCC(=O)O)NC(=O)[C@H](CCCN)NC(=O)[C@H](CC(=O)O)NC(=O)[C@H](CC(C)C)NC(=O)[C@](C)(CC(C)C)NC(=O)[C@@H](NC(=O)C(C)(C)NC(=O)[C@@H](NC(=O)[C@H](CC(=O)O)NC(=O)[C@H](CO)NC(=O)[C@@H](NC(=O)[C@](C)(Cc1ccccc1F)NC(=O)[C@@H](NC(=O)CNC(=O)[C@H](CCC(=O)O)NC(=O)C(C)(C)NC(=O)[C@@H](N)Cc1ccc(O)cc1)[C@@H](C)O)[C@@H](C)O)C(C)C)[C@@H](C)CC)[C@@H](C)CC)C(=O)N[C@@H](CCC(=O)O)C(=O)NCC(=O)NCC(=O)N1CCC[C@H]1C(=O)N[C@@H](CO)C(=O)N[C@@H](CO)C(=O)NCC(=O)N[C@@H](C)C(=O)N1CCC[C@H]1C(=O)N1CCC[C@H]1C(=O)N1CCC[C@H]1C(=O)N[C@@H](CO)C(N)=O [Example 386],–,–,–,–,–,–,–,–,–,–,81.3,95.7,0.0174,2.08,> 9950,> 9950,96.8,98.9,0.194
CC[C@H](C)[C@H](NC(=O)[C@H](CC(C)C)NC(=O)[C@](C)(Cc1ccc(O)cc1)NC(=O)[C@@H](CCC(=O)O)NC(=O)[C@@H](NC(=O)[C@H](Cc1ccccc1)NC(=O)[C@H](CCCCNC(=O)COCCOCCNC(=O)CC[C@H](NC(=O)CCCCCCCCCCCCC(=O)O)C(=O)O)NC(=O)C(C)(C)NC(=O)[C@H](CCC(N)=O)NC(=O)[C@H](C)NC(=O)[C@H](CCCCNC(=O)COCCOCCNC(=O)CC[C@H](NC(=O)CCCCCCCCCCCCC(=O)O)C(=O)O)NC(=O)[C@H](CCCN)NC(=O)[C@H](CC(=O)O)NC(=O)[C@H](CC(C)C)NC(=O)[C@](C)(CC(C)C)NC(=O)[C@@H](NC(=O)C(C)(C)NC(=O)[C@H](Cc1ccncc1)NC(=O)[C@H](CC(=O)O)NC(=O)[C@H](CO)NC(=O)[C@@H](NC(=O)[C@](C)(Cc1ccccc1F)NC(=O)[C@@H](NC(=O)CNC(=O)[C@H](CCC(=O)O)NC(=O)C(C)(C)NC(=O)[C@@H](N)Cc1ccc(O)cc1)[C@@H](C)O)[C@@H](C)O)[C@@H](C)CC)[C@@H](C)CC)C(=O)N[C@@H](CCC(=O)O)C(=O)NCC(=O)NCC(=O)N1CCC[C@H]1C(=O)N[C@@H](CO)C(=O)N[C@@H](CO)C(=O)NCC(=O)N[C@@H](C)C(=O)N1CCC[C@H]1C(=O)N1CCC[C@H]1C(=O)N1CCC[C@H]1C(=O)N[C@@H](CO)C(N)=O [Example 336],–,–,–,–,–,–,–,–,–,–,94.6,109,0.0136,2.92,> 10100,> 10100,–,–,0.338
